Experimental data reported in PubChem BioAssay (NCI).
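Grown in 96-well plates, cells were treated for 48 hours with each compound at five concentrations. Insufficient inhibition: endpoint recorded as highest concentration tested. The concentration for full growth arrest is given as TGI.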

What was measured:
Experiment in all cases: NCI tumour cell line growth inhibition, 48 h
[1] = system: UACC-62 melanoma
[2] = system: SNB-19 CNS
[3] = system: SK-MEL-28 melanoma
[4] = system: EKVX NSCLC
[5] = system: OVCAR-5 ovarian
[6] = system: NCI-H226 lung
[7] = system: KM12 colon
[8] = system: M14 melanoma
[9] = system: RPMI-8226 leukemia
[10] = system: LOX IMVI melanoma
[11] = system: HCC-2998 colon
[12] = system: NCI-H460 lung
[13] = system: SF-539 CNS
[14] = system: SK-OV-3 ovarian
[15] = system: HS 578T breast
[16] = system: HCT-116 colon
[17] = system: MALME-3M melanoma
[18] = system: HL-60(TB) leukemia
[19] = system: IGROV1 ovarian
[20] = system: MOLT-4 leukemia
[21] = system: HOP-92 NSCLC
[22] = system: CCRF-CEM leukemia
[23] = system: NCI-H522 lung
[24] = system: SF-268 CNS
[25] = system: UACC-257 melanoma
[26] = system: BT-549 breast
[27] = system: NCI-H23 lung
[28] = system: SF-295 CNS
[29] = system: OVCAR-4 ovarian
[30] = system: OVCAR-3 ovarian
[31] = system: T-47D breast
[32] = system: SNB-75 CNS
[33] = system: 786-0 renal
[34] = system: SK-MEL-5 melanoma
[35] = system: MDA-N
[36] = system: A549 NSCLC
[37] = system: SK-MEL-2 melanoma
[38] = system: SW-620 colon
[39] = system: MDA-MB-435
[40] = system: OVCAR-8 ovarian
[41] = system: A498 renal
[42] = system: HT29 colon
[43] = system: U251 CNS
[44] = system: DU-145 prostate
[45] = system: TK-10 renal
[46] = system: HOP-62 NSCLC
[47] = system: HCT-15 colon
[48] = system: SN12C renal
[49] = system: NCI/ADR-RES ovarian
[50] = system: SR leukemia
[51] = system: ACHN renal
[52] = system: MCF7 breast
[53] = system: MDA-MB-231 breast
[54] = system: PC-3 prostate
[55] = system: CAKI-1 renal
[56] = system: COLO 205 colon

Measured: TGI

Cc1nc2ccccc2c(=O)n1/N=C/c1ccc(N(C)C)cc1
54 µM: [15]
43.9 µM: [32]
> 100 µM: all other assays above
